Measurements as given in PubChem BioAssay (NCI).
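Exposure lasted 48 hours, with cells grown in 96-well plates and compounds tested at five concentrations. TGI: concentration producing complete growth inhibition.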

How the values were obtained:
Assay in all cases: growth of human tumour cells (NCI), 48 h
[1] = system: RPMI-8226 leukemia
[2] = system: SK-MEL-28 melanoma
[3] = system: T-47D breast
[4] = system: MDA-MB-435
[5] = system: RXF 393 renal
[6] = system: UACC-62 melanoma
[7] = system: PC-3 prostate
[8] = system: EKVX NSCLC
[9] = system: HS 578T breast
[10] = system: A498 renal
[11] = system: NCI/ADR-RES ovarian
[12] = system: HOP-92 NSCLC
[13] = system: HCC-2998 colon
[14] = system: NCI-H23 lung
[15] = system: COLO 205 colon
[16] = system: ACHN renal
[17] = system: SNB-19 CNS
[18] = system: SW-620 colon
[19] = system: KM12 colon
[20] = system: HCT-116 colon
[21] = system: LOX IMVI melanoma
[22] = system: HOP-62 NSCLC
[23] = system: IGROV1 ovarian
[24] = system: K-562 leukemia
[25] = system: MCF7 breast
[26] = system: SF-539 CNS
[27] = system: SK-OV-3 ovarian
[28] = system: CCRF-CEM leukemia
[29] = system: SF-268 CNS
[30] = system: TK-10 renal
[31] = system: OVCAR-5 ovarian
[32] = system: SF-295 CNS
[33] = system: M14 melanoma
[34] = system: UACC-257 melanoma
[35] = system: CAKI-1 renal
[36] = system: OVCAR-4 ovarian
[37] = system: SR leukemia
[38] = system: A549 NSCLC
[39] = system: OVCAR-8 ovarian
[40] = system: BT-549 breast
[41] = system: NCI-H460 lung
[42] = system: HT29 colon
[43] = system: HL-60(TB) leukemia
[44] = system: OVCAR-3 ovarian
[45] = system: SK-MEL-5 melanoma
[46] = system: SN12C renal
[47] = system: DU-145 prostate
[48] = system: SNB-75 CNS
[49] = system: U251 CNS
[50] = system: MOLT-4 leukemia
[51] = system: MDA-MB-231 breast
[52] = system: SK-MEL-2 melanoma
[53] = system: NCI-H226 lung
[54] = system: MDA-N
[55] = system: UO-31 renal
[56] = system: HCT-15 colon
[57] = system: 786-0 renal
[58] = system: NCI-H522 lung
[59] = system: MALME-3M melanoma

Measured: TGI

CN(N=O)C(=O)NNC(=O)N(C)N=O
85.7 µM: [5]
95.1 µM: [57]
> 100 µM: [1] | [2] | [3] | [4] | [6] | [7] | [8] | [9] | [10] | [11] | [12] | [13] | [14] | [15] | [16] | [17] | [18] | [19] | [20] | [21] | [22] | [23] | [24] | [25] | [26] | [27] | [28] | [29] | [30] | [31] | [32] | [33] | [34] | [35] | [36] | [37] | [38] | [39] | [40] | [41] | [42] | [43] | [44] | [45] | [46] | [47] | [48] | [49] | [50] | [51] | [52] | [53] | [54] | [55] | [56] | [58]

O=C(O)C1Cc2c([nH]c3ccccc23)C(CCCCO)N1 (stereo unspecified)
> 100 µM: [1] | [2] | [3] | [4] | [5] | [6] | [7] | [8] | [9] | [10] | [11] | [12] | [14] | [15] | [16] | [17] | [18] | [19] | [20] | [21] | [22] | [23] | [59] | [24] | [25] | [26] | [27] | [28] | [29] | [30] | [31] | [32] | [33] | [34] | [35] | [36] | [37] | [38] | [39] | [40] | [41] | [42] | [43] | [44] | [45] | [46] | [47] | [49] | [50] | [51] | [52] | [53] | [54] | [55] | [56] | [57] | [58]

COc1ccc2c(c1)CCc1cc(C(N)=O)c3nnnn3c1-2
29.3 µM: [29]
> 100 µM: [1] | [2] | [3] | [4] | [7] | [9] | [11] | [12] | [13] | [14] | [15] | [16] | [17] | [18] | [19] | [20] | [21] | [22] | [23] | [59] | [24] | [25] | [26] | [27] | [30] | [31] | [33] | [34] | [35] | [36] | [37] | [38] | [39] | [40] | [42] | [43] | [44] | [45] | [46] | [47] | [51] | [53] | [54] | [56] | [57] | [58]
98.5 µM: [32]
> 91.2 µM: [28]
> 76.9 µM: [50]
50.9 µM: [41]
23.9 µM: [6]
> 75.5 µM: [52]
62.2 µM: [10]
> 67.4 µM: [49]
63 µM: [5]
